The text below walks through data of US7638055B2, “Sludge quality” (Rhodia Operations, priority 2004, dated 2009).

For assay [1], the system named is filamentous bacteria in the sludge. The note with it: 2 and 4 mg/l/day Compound X, flash mixing, vs untreated control, 52 day experiment. An excerpt: (§1) A series of semi-continuous chemostat reactors was constructed to simulate wastewater treatment processes.
(§2) The central part of the equipment is the biological chemostat reactor 1. The reactor vessel 2 is made of glass, with an internal volume of 10 liters and is fitted with pH 3 and dissolved oxygen 4 sensors and an air sparge 5. This contains the sludge, which is, essentially, a mass of typical wastewater treatment microorganisms. The reactor operates at an ambient temperature (approximately 20° C.).
(§3) Simulated wastewater 13 is contained in a separate vessel 6 and maintained at 4° C. to prevent microbial spoilage. It is transferred into the reactor via a supply line 7 and a peristaltic pump 8.
(§4) A recirculating line 9 is provided on the reactor comprising a length of flexible silicone tubing and a peristaltic pump 10. The peristaltic pump extracts the sludge from the reactor into the recirculation line. The candidate water-soluble biocide is introduced into this line 9 through a needle 11, which is fed by a syringe pump 12. Using this system it is possible to achieve “flash mixing” which ensures rapid contact of the water-soluble biocide with the sludge microorganisms. […]
(§5) Compound X was evaluated in the test. […] Two concentrations were evaluated: 2 and 4 milligrams per liter per day, as well as a control with no treatment by Compound X.

The test system of assay [2] is protozoans and other higher organisms. As to conditions: 2 and 4 mg/l/day Compound X, treated sludge relative to untreated.
Description: as §1, §2, §3, §4, §5

In assay [3] the test system is filamentous bacteria. The note with it: for Observations (filamentous bacteria): sample 48 days after start up, magnification x220. How it is done: Samples were taken from the semi-continuous reactors described in Example 1, 48 days after the start up of the trial.
A sample of each of the Compound X concentrations tested in the reactors of Example 1 was evaluated in this test. Accordingly, samples with 2 and 4 milligrams per liter per day treatment of Compound X were tested, as well as a control with no treatment by Compound X.
The samples were observed through phase contrast microscope magnification×220.

Read-outs that look alike come from different tables or passages of the source.

On to “tetrakis(hydroxymethyl)phosphonium sulphate [Compound X]”, for which the “filamentous bacteria in the sludge” value in assay [1] is reported as “substantially absent”. In addition, the “concentration of protozoans and other higher organisms in the sludge” value in assay [2] was “significantly higher concentration of protozoans and other higher organisms”. The “Observations (filamentous bacteria)” value in assay [3] (2 mg/l/day) and in assay [3] (4 mg/l/day) was “No filamentous bacteria present,” each time. Also, the “reduction of filamentous bacteria and sludge settling” value in assay [3] (two doses of 4 mg/l/day (4 mg/l dose on two consecutive days)) was “Reduction of filamentous bacteria and thus improved sludge settling”. Besides, the “level of filaments after treatment was stopped” value in assay [3] (two doses of 4 mg/l/day, without further treatment) is reported as “remained low for more than one week”.
